Biological target: human NaV 1.8 channels stably expressed in HEK 293 cells (Homo sapiens (Human), UniProt Q9Y5Y9)
Assay: Nav1.8 Qube automated patch-clamp assay
Type: cell-based
Conditions: human NaV1.8 in HEK 293 cells, whole-cell voltage clamp, room temperature; read-out: IC50 values (nM) for Examples in the Nav1.8 Qube Assay
How it was run: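 Whole-cell voltage clamp at room temperature on HEK293 cells; from −90 mV, a 10 s 1 Hz train of 20 ms pulses to 10 mV (repolarising to −67 mV) was applied. Peak currents at pulses 1 and 10 gave resting- and inactivated-state inhibition; IC50 fitted by Hill equation. Internal CsF/CsCl buffer.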

Sequence of human NaV 1.8 channels stably expressed in HEK 293 cells (Q9Y5Y9 whole entry): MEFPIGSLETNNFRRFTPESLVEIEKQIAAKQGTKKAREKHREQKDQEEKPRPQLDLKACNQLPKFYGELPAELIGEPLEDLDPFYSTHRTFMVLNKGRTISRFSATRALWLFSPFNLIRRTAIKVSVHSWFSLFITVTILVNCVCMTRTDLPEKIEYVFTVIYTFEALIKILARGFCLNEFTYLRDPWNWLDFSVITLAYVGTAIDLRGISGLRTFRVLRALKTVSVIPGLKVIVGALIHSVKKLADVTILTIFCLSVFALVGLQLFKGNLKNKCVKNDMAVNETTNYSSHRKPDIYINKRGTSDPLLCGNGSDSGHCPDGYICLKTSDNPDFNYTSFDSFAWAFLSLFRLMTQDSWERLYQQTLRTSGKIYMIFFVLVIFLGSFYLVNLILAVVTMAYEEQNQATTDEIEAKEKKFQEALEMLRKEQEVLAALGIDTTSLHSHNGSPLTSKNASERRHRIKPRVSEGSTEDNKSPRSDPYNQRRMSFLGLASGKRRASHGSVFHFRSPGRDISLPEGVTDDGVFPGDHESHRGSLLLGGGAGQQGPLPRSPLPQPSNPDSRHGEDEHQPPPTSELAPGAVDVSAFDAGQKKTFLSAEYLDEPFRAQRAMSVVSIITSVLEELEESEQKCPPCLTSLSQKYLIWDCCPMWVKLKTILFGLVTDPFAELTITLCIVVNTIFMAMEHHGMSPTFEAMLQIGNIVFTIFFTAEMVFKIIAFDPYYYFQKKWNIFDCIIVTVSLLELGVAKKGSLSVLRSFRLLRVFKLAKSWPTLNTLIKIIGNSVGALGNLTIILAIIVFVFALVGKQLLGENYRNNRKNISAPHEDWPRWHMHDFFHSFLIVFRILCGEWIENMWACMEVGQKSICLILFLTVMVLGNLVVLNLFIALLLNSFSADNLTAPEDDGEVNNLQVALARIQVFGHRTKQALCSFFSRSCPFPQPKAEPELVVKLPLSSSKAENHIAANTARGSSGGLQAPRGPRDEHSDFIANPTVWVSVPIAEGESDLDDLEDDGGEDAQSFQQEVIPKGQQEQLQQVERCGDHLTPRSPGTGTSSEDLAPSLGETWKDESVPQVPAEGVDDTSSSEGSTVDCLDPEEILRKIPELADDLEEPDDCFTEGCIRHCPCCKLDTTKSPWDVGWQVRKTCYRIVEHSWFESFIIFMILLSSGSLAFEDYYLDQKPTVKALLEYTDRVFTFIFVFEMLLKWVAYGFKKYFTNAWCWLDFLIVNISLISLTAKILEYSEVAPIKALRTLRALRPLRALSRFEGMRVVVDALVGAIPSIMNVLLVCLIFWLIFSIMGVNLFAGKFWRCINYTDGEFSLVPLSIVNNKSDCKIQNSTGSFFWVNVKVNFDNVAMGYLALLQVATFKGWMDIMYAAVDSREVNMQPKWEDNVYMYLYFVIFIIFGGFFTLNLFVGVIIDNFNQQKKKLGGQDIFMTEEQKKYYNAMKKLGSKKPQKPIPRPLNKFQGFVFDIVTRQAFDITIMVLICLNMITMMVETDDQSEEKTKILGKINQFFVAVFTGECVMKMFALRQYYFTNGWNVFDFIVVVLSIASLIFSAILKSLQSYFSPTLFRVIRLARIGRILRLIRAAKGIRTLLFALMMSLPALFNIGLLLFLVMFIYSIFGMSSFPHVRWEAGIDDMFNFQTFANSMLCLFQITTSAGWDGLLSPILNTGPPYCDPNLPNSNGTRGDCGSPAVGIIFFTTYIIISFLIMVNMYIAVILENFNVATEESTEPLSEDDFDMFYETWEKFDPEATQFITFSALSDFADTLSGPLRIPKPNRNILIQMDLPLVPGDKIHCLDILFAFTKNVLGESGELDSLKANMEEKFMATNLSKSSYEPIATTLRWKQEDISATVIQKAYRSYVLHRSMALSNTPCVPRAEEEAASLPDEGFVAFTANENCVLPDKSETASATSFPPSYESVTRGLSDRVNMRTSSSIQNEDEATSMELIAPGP

Compound	IC50 [nM]
C[C@@H]1C(=O)NCCN1C(=O)NC(c1ccc(OC2CC2)c(F)c1)c1cnc(C(F)(F)F)c(Cl)c1 (single isomer, unassigned) [Example 25A, (2R)-N-((R or S)-(5-chloro-6-(trifluoro-methyl)pyridin-3-yl)(4-cyclopropoxy-3-fluorophenyl)methyl)-2-methyl-3-oxopiperazine-1-carboxamide]	3.51
C[C@@H]1C(=O)NCCN1C(=O)NC(c1ccc(F)c(Cl)c1)c1ccc2nc(C(F)(F)F)cn2c1 (single isomer, unassigned) [Example 11A, (2R)-N-((R or S)-(3-chloro-4-fluoro-phenyl)(2-(trifluoro-methyl)imidazo[1,2-a]pyridin-6-yl)-methyl)-2-methyl-3-oxopiperazine-1-carboxamide]	67.4
C[C@@H]1C(=O)NCCN1C(=O)NC(c1ccc(OCC(F)(F)F)nc1)c1ccc(F)c(Cl)c1F (single isomer, unassigned) [Example 1B]	30.9
C[C@@H]1C(=O)NCCN1C(=O)NC(c1ccc(OC(F)(F)F)c(Cl)c1)c1cnn(C(F)(F)F)c1 (single isomer, unassigned) [Example 63B, (2R)-N-((S or R)-(3-chloro-4-(trifluoro-methoxy)phenyl)(1-(trifluoromethyl)-1H-pyrazol-4-yl)methyl)-2-methyl-3-oxopiperazine-1-carboxamide]	13.5
C[C@@H]1C(=O)NCCN1C(=O)NC(c1ccc(OCC(F)(F)F)cc1)c1ccc(F)c(C(F)(F)F)n1 (single isomer, unassigned) [Example 57B, (2R)-N-((S or R)-(5-fluoro-6-(trifluoro-methyl)pyridin-2-yl)(4-(2,2,2-trifluoro-ethoxy)phenyl)methyl)-2-methyl-3-oxopiperazine-1-carboxamide]	125
C[C@@H]1C(=O)NCCN1C(=O)NC(c1ccc(OCC(F)(F)F)nc1)c1ccc(F)c(Cl)c1F (single isomer, unassigned) [Example 1A]	1.09
C[C@@H]1C(=O)NCCN1C(=O)NC(c1ccc(OCC(F)(F)F)nc1)c1ccc(F)c(F)c1 (single isomer, unassigned) [Example 6A, (2R)-N-((R or S)-(3,4-difluorophenyl)(6-(2,2,2-trifluoro-ethoxy)pyridin-3-yl)methyl)-2-methyl-3-oxopiperazine-1-carboxamide]	20
C[C@@H]1C(=O)NCCN1C(=O)NC(c1ccc(OC(F)(F)F)cc1)c1cnc(C(F)(F)F)c(Cl)c1 (single isomer, unassigned) [Example 20B, (2R)-N-((S or R)-(5-chloro-6-(trifluoro-methyl)pyridin-3-yl)(4-(trifluoromethoxy)phenyl)methyl)-2-methyl-3-oxopiperazine-1-carboxamide]	4
C[C@@H]1C(=O)NCCN1C(=O)NC(c1ccc(C(F)(F)F)nc1)c1ccc(Cl)c(Cl)c1 (single isomer, unassigned) [Example 18B, (2R)-N-((S or R)-(3,4-dichlorophenyl)(6-(trifluoromethyl)pyridin-3-yl)methyl)-2-methyl-3-oxopiperazine-1-carboxamide]	4.69
C[C@@H]1C(=O)NCCN1C(=O)NC(c1ccc(OCC(F)(F)F)nc1)c1ccc(F)c(C(F)(F)F)n1 (single isomer, unassigned) [Example 50B, (2R)-N-((S or R)-(5-fluoro-6-(trifluoro-methyl)pyridin-2-yl)(6-(2,2,2-trifluoro-ethoxy)pyridin-3-yl)methyl)-2-methyl-3-oxopiperazine-1-carboxamide]	8.55
CC1(C)C(=O)NCCN1C(=O)NC(c1ccc(F)c(Cl)c1)c1cccc(C(F)(F)F)n1 (single isomer, unassigned) [Example 43, N-((R or S)-(3-chloro-4-fluorophenyl)(6-(trifluoromethyl)pyridin-2-yl)methyl)-2,2-dimethyl-3-oxopiperazine-1-carboxamide]	230
C[C@@H]1C(=O)NCCN1C(=O)NC(c1ccc(Cl)c(C#N)c1)c1ccc(F)c(C(F)(F)F)n1 (single isomer, unassigned) [Example 52A, (2R)-N-((R or S)-(4-chloro-3-cyano-phenyl)(5-fluoro-6-(trifluoromethyl)pyridin-2-yl)methyl)-2-methyl-3-oxopiperazine-1-carboxamide]	5.79
O=C1NCCN(C(=O)NC(c2cnc(C(F)(F)F)c(F)c2)c2ccc(F)c(Cl)c2F)C1C1CC1 (single isomer, unassigned) [Example 37A, N-(R or S)-(3-chloro-2,4-difluorophenyl)(5-fluoro-6-(trifluoro-methyl)pyridin-3-yl)methyl)-(R or S)-2-cyclopropyl-3-oxopiperazine-1-carboxamide]	1.85
O=C1CN(C(=O)NC(c2ccc(OCC(F)(F)F)nc2)c2ccc(F)c(Cl)c2F)CCN1 (single isomer, unassigned) [Example 8A, N-((R or S)-(3-chloro-2,4-difluorophenyl)(6-(2,2,2-trifluoroethoxy)pyridin-3-yl)methyl)-3-oxopiperazine-1-carboxamide]	4.46
C[C@@H]1C(=O)NCCN1C(=O)NC(c1cnc(C(F)(F)F)c(Cl)c1)c1ccc(Cl)c(C#N)c1 (single isomer, unassigned) [Example 23A, (2R)-N-((R or S)-(4-chloro-3-cyano-phenyl)(5-chloro-6-(trifluoromethyl)pyridin-3-yl)methyl)-2-methyl-3-oxopiperazine-1-carboxamide]	17
C[C@@H]1C(=O)NCCN1C(=O)NC(c1ccc(OC(F)(F)F)nc1)c1ccc(F)c(Cl)c1F (single isomer, unassigned) [Example 4B, (2R)-N-((S or R)-(3-chloro-2,4-difluorophenyl)(6-(trifluoromethoxy)pyridin-3-yl)methyl)-2-methyl-3-oxopiperazine-1-carboxamide]	25.7
C[C@@H]1CN(C(=O)NC(c2ccc(F)c(Cl)c2)c2cccc(C(F)(F)F)n2)CC(=O)N1 (single isomer, unassigned) [Example 46B, (3R)-N-((S or R)-(3-chloro-4-fluoro-phenyl)(6-(trifluoro-methyl)pyridin-2-yl)methyl)-3-methyl-5-oxopiperazine-1-carboxamide]	506

The next lines start with the values.

IC50 [nM]	Compound
1.06	C[C@@H]1C(=O)NCCN1C(=O)NC(c1ccc(Cl)c(C(F)(F)F)n1)c1ccc(F)c(Cl)c1F (single isomer, unassigned) [Example 77B, (2R)-N-((S or R)-(3-chloro-2,4-difluorophenyl)(5-chloro-6-(trifluoromethyl)pyridin-2-yl)methyl)-2-methyl-3-oxopiperazine-1-carboxamide]
15.3	O=C1CN(C(=O)NC(c2ccc(Cl)c(C(F)(F)F)n2)c2ccc(F)c(Cl)c2F)CCN1 (single isomer, unassigned) [Example 78A, N-((R or S)-(3-chloro-2,4-difluorophenyl)(5-chloro-6-(trifluoro-methyl)pyridin-2-yl)methyl)-3-oxopiperazine-1-carboxamide]
136	C[C@@H]1C(=O)NCCN1C(=O)NC(c1cnc(C(F)(F)F)nc1)c1ccc(F)c(Cl)c1 (single isomer, unassigned) [Example 69A, (2R)-N-((R or S)-(3-chloro-4-fluorophenyl)(2-(trifluoromethyl)pyrimidin-5-yl)methyl)-2-methyl-3-oxopiperazine-1-carboxamide]
195	C[C@@H]1C(=O)NCCN1C(=O)NC(c1ccc(F)c(Cl)c1)c1cccc(OC(F)F)n1 (single isomer, unassigned) [Example 72A]
202	C[C@@H]1C(=O)NCCN1C(=O)NC(c1cnc(C(F)(F)F)c(Cl)c1)c1csc(C(F)(F)F)n1 (single isomer, unassigned) [Example 84B, (2R)-N-((S or R)-(5-chloro-6-(trifluoromethyl)pyridin-3-yl)(2-(trifluoromethyl)thiazol-4-yl)methyl)-2-methyl-3-oxopiperazine-1-carboxamide]
16.2	C[C@@H]1C(=O)NCCN1C(=O)NC(c1cnc(C(F)(F)F)c(Cl)c1)c1csc(C(F)(F)F)n1 (single isomer, unassigned) [Example 84A, (2R)-N-((R or S)-(5-chloro-6-(trifluoromethyl)pyridin-3-yl)(2-(trifluoromethyl)thiazol-4-yl)methyl)-2-methyl-3-oxopiperazine-1-carboxamide]
51.4	C[C@@H]1C(=O)NCCN1C(=O)NC(c1ccc(F)c(Cl)c1)c1ccc(F)c(OCC(F)(F)F)n1 (single isomer, unassigned) [Example 70A]
124	C[C@@H]1C(=O)NCCN1C(=O)NC(c1ccc(OC(F)(F)F)cc1)c1cc(C(F)(F)F)n[nH]1 (single isomer, unassigned) [Example 87A, (2R)-2-methyl-3-oxo-N-((R or S)-(4-(trifluoromethoxy)phenyl)(3-(trifluoromethyl)-1H-pyrazol-5-yl)methyl)piperazine-1-carboxamide]
4.59	C[C@@H]1C(=O)NCCN1C(=O)NC(c1ccc(Cl)c(C(F)(F)F)n1)c1ccc(F)c(Cl)c1F (single isomer, unassigned) [Example 77A, (2R)-N-((R or S)-(3-chloro-2,4-difluorophenyl)(5-chloro-6-(trifluoromethyl)pyridin-2-yl)methyl)-2-methyl-3-oxopiperazine-1-carboxamide]
71.1	C[C@@H]1C(=O)NCCN1C(=O)NC(c1cnc(OC(F)F)nc1)c1ccc(F)c(Cl)c1F (single isomer, unassigned) [Example 74A, (2R)-N-((R or S)-(3-chloro-2,4-difluoro-phenyl)(2-(difluoro-methoxy)pyrimidin-5-yl)methyl)-2-methyl-3-oxopiperazine-1-carboxamide]
167	C[C@@H]1C(=O)NCCN1C(=O)NC(c1ccc(C#N)cc1)c1ccc(Cl)c(C(F)(F)F)n1 (single isomer, unassigned) [Example 76B]

— patent US20240246932A1 (Merck Sharp & Dohme LLC, priority 2021, published 2024)
